What was measured:
Assay in all cases: IA-DTB cysteine engagement
Type in all cases: binding
Settings in all cases: 22Rv1 cells, 20 μM probe, 1 h, relative to DMSO
ABCA2_C2385 = target: T1, ABCA2_C2385 (Homo sapiens, UniProt Q9BZC7)
T1 construct: endogenous in cells; host or cells: 22Rv1
Method in brief: (§1)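 Competitive chemoproteomics: residual cysteine reactivity toward IA-DTB in lysates from probe-treated cells was quantified by TMT reporter ions relative to DMSO-treated controls. Replicates sharing cell line, probe, concentration and duration were averaged.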

ABCB8_C462 = target: T2, ABCB8_C462 (Homo sapiens, UniProt Q9NUT2)
T2 construct: endogenous in cells; host or cells: 22Rv1
T2 sequence (Q9NUT2 26-735): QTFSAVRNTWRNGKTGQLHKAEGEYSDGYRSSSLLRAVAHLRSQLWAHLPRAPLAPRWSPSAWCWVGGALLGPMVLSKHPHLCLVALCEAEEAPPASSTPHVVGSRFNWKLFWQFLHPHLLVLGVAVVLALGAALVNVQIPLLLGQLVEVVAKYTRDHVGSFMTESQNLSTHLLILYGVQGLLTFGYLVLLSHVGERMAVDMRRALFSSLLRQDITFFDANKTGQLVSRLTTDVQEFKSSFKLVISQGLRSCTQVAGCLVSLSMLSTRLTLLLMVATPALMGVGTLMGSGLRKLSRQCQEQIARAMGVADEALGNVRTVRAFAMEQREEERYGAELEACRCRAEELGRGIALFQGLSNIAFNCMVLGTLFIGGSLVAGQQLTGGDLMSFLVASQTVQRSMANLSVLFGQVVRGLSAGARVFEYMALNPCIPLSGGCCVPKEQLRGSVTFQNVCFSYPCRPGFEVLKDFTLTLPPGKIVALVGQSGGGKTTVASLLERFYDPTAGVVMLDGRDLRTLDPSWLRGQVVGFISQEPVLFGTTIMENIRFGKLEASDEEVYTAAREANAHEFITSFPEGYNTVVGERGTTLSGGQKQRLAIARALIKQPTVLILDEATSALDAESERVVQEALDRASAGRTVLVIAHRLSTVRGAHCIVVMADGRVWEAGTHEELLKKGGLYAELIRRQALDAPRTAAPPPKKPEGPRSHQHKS
Method in brief: as §1

HSD11B2_C264 = target: T3, HSD11B2_C264 (Homo sapiens, UniProt P80365)
T3 construct: endogenous in cells; host or cells: 22Rv1
T3 sequence (P80365 1-405): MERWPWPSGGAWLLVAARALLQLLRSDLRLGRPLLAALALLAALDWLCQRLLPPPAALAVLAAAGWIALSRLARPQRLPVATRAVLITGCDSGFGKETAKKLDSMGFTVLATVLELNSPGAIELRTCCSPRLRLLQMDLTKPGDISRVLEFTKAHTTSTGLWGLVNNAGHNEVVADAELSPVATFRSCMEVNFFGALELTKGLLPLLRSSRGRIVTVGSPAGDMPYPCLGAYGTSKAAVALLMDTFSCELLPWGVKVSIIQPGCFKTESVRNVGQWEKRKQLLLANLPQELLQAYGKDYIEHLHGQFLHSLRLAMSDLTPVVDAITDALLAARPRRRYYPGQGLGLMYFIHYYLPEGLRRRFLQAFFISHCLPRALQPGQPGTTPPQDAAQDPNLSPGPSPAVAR
Method in brief: as §1

T1 sequence (Q9BZC7 whole entry): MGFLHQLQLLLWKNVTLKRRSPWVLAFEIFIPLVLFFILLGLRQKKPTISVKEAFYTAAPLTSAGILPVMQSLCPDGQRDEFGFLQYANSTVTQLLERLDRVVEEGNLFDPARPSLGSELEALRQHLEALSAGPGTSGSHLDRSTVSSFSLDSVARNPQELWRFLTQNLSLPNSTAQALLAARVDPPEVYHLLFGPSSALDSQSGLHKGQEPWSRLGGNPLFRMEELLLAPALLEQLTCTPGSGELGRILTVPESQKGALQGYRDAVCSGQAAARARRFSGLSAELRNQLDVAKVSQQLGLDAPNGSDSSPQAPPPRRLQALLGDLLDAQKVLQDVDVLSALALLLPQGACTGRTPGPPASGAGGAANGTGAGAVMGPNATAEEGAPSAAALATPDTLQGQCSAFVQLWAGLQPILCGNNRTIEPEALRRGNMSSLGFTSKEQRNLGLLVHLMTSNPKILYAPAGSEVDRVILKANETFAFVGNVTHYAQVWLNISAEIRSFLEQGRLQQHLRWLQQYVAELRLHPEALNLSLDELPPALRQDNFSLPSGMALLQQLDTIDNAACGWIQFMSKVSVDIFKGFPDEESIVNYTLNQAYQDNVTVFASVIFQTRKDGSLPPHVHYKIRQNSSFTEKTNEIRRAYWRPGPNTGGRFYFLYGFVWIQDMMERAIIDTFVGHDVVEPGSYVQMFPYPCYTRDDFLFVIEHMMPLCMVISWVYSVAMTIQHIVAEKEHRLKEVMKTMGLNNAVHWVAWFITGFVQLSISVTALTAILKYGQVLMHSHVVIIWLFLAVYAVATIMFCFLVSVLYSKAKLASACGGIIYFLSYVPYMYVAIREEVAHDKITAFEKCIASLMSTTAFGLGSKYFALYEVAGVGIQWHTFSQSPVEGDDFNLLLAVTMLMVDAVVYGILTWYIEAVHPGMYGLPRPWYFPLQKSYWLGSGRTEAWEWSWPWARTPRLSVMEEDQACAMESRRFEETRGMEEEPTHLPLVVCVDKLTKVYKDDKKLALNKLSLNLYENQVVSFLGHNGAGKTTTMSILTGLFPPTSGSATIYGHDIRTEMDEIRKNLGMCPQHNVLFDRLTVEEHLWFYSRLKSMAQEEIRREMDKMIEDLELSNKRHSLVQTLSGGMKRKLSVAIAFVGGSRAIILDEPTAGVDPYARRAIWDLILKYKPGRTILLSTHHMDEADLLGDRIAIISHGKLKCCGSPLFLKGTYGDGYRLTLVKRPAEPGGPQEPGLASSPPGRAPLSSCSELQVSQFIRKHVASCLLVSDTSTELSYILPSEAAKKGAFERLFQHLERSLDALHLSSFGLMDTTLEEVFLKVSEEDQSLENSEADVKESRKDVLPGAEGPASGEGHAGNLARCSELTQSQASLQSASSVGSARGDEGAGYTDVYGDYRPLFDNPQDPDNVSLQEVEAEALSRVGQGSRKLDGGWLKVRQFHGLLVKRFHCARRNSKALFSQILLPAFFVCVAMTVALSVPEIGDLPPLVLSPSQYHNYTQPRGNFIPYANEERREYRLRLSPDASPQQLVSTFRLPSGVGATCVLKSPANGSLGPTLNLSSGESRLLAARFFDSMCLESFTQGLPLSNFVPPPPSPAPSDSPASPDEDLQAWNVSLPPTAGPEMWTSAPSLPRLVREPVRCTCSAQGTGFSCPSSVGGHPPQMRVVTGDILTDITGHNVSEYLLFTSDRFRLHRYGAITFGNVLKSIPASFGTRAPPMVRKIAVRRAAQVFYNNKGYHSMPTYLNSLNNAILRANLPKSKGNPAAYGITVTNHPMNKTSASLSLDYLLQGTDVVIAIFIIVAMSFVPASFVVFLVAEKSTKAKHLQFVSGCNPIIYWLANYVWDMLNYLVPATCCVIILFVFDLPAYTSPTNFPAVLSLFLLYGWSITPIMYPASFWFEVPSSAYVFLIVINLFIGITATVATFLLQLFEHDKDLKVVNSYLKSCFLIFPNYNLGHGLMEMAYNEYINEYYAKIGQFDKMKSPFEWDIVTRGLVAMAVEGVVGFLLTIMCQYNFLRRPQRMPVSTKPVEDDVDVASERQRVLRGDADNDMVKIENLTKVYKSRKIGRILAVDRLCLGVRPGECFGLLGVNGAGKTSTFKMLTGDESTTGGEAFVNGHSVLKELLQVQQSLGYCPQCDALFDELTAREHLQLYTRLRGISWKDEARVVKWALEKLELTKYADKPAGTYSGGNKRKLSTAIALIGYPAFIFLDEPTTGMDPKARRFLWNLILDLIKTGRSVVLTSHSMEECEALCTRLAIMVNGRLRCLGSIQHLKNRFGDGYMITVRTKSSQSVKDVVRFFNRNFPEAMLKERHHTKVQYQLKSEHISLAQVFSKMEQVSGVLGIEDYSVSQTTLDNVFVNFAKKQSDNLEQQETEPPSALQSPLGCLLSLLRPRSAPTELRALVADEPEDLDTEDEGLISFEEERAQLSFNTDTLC

Row | % engagement ABCA2_C2385 (ABCA2_C2385) [%] | % engagement ABCB8_C462 (ABCB8_C462) [%] | % engagement HSD11B2_C264 (HSD11B2_C264) [%] | SMILES
1 | 33 | 28.5 | 30.5 | C=CC(=O)N1C[C@@H](c2ccc(Br)cc2)[C@H]1C(=O)Nc1cccc2cccnc12 [MY-1A, (2S,3R)-1-acryloyl-3-(4-bromophenyl)-N-(quinolin-8-yl)azetidine-2-carboxamide]
2 | 78 | 39 | 22 | C=CC(=O)N1C[C@H](c2ccc(Br)cc2)[C@@H]1C(=O)Nc1cccc2cccnc12 [MY-1B, (2R,3S)-1-acryloyl-3-(4-bromophenyl)-N-(quinolin-8-yl)azetidine-2-carboxamide]
3 | 72.5 | 73.25 | 90.25 | C=CC(=O)N1C[C@H](c2ccc(Br)cc2)[C@H]1C(=O)Nc1cccc2cccnc12 [MY-3B, (2S,3S)-1-acryloyl-3-(4-bromophenyl)-N-(quinolin-8-yl)azetidine-2-carboxamide]
4 | 42.5 | 19.5 | 23.5 | C=CC(=O)N1C[C@H](c2ccc(Br)cc2)[C@H]1C(=O)Nc1cccc2cccnc12 [MY-3A, (2S,3S)-1-acryloyl-3-(4-bromophenyl)-N-(quinolin-8-yl)azetidine-2-carboxamide]

From patent US20250034216A1, “STEREOSELECTIVE COVALENT LIGANDS FOR ONCOGENIC AND IMMUNOLOGICAL PROTEINS” (The Scripps Research Institute, priority 2021, published 2025)
